Data: ChEMBL document CHEMBL4382265, “(Pyrrolo-pyridin-5-yl)benzamides: BBB permeable monoamine oxidase B inhibitors with neuroprotective effect on cortical neurons” (Eur J Med Chem, 2019)
≈ marks a conversion by molar mass, not a printed value. One block for each molecule: values may come before it. Calls of active or inactive are those of the source. The rule behind the calls is not given here.

Experiments:
Homo sapiens = species on record: Homo sapiens; assay: Selectivity index, ratio of IC50 for human recombinant MAO-A expressed in baculovirus infected BTI-TN-5B1-4 insect cells to IC50 for human recombinant MAO-B expressed in baculovirus infected BTI-TN-5B1-4 insect cells
[1] = Selectivity ratio of IC50 for Sprague-Dawley rat liver MAO-B to human recombinant MAO-B expressed in baculovirus infected BTI-TN-5B1-4 insect cells
[2] = biological target: T1, Amine oxidase [flavin-containing] A (Rattus norvegicus, UniProt P21396)
T1 sequence (P21396 whole entry): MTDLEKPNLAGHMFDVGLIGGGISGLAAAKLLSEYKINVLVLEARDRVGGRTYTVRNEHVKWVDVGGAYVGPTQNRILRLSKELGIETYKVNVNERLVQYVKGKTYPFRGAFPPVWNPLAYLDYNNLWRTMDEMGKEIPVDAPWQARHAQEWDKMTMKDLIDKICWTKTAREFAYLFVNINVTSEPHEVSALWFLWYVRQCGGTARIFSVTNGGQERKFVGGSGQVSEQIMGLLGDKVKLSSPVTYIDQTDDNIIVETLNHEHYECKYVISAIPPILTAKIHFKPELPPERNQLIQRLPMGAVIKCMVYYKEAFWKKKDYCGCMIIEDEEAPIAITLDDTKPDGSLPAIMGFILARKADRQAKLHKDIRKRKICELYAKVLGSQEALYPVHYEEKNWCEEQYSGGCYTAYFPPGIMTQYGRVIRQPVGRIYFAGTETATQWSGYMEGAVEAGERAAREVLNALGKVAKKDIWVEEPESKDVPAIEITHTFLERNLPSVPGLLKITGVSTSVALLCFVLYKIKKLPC
Description: Inhibition of Sprague-Dawley rat liver MAO-A using p-tyramine as substrate preincubated for 15 mins and measured after 45 mins by resorufin-based fluorescence assay

[3] = biological target: T2, Amine oxidase [flavin-containing] B (Homo sapiens, UniProt P27338); assay: Inhibition of human recombinant MAO-B expressed in baculovirus infected BTI-TN-5B1-4 insect cells using p-tyramine as substrate preincubated for 15 mins and measured after 45 mins by Cheng-Prusoff equation analysis
T2 sequence (P27338 whole entry): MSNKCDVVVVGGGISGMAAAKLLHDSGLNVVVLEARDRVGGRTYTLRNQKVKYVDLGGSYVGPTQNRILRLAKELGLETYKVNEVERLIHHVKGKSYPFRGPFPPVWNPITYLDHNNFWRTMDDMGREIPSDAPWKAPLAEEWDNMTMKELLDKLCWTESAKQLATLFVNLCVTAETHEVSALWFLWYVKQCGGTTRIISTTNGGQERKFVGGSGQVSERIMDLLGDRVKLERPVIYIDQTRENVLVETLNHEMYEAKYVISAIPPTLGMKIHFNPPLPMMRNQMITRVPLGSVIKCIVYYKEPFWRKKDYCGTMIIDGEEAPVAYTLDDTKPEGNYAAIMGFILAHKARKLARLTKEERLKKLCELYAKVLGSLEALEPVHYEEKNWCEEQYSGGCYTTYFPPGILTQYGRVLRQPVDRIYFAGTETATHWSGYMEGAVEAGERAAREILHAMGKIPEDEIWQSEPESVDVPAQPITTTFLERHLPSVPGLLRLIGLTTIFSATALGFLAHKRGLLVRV

[4] = biological target: T3, Amine oxidase [flavin-containing] A (Homo sapiens, UniProt P21397); assay: biochemical
T3 sequence (P21397 whole entry): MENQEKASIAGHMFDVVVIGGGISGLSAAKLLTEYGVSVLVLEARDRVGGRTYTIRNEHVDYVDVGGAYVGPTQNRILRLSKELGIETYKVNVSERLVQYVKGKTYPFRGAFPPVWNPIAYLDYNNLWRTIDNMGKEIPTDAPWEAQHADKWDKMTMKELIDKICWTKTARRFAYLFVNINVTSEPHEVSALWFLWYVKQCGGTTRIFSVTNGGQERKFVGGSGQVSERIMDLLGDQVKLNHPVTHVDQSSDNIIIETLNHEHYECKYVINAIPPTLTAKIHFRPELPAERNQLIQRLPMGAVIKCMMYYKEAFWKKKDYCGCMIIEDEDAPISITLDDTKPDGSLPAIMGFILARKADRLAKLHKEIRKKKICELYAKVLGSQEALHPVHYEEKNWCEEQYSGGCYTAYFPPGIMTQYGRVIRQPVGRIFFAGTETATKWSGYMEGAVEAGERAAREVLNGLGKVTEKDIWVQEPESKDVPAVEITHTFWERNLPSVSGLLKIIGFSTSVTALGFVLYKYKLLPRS
Description: Inhibition of human recombinant MAO-A expressed in baculovirus infected BTI-TN-5B1-4 insect cells using p-tyramine as substrate preincubated for 15 mins and measured after 45 mins by resorufin-based fluorescence assay

[5] = Kinetic aqueous solubility of compound at 500 uM at pH 2 after 90 mins by UV-vis spectrophotometric analysis; type: physicochemical; conditions: buffer; for log(Kinetic_solubility): pH 2, 1.5 h, 500 µM; for solubility kinetic at 1.5 h, 500 µM: pH 2, read-out: Kinetic_solubility
Cortical neurone [6] = assay: Neuroprotective activity in rat primary cortical neurons neurovascular unit model assessed as increase in survival at 1 pM to 10 nM after 120 hrs in presence of HBMEC relative to untreated control; type: functional, cell-based
[7] = Kinetic aqueous solubility of compound at 500 uM at pH 5.5 after 90 mins by UV-vis spectrophotometric analysis; type: physicochemical; conditions: buffer; for log(Kinetic_solubility): pH 5.5, 1.5 h, 500 µM; for solubility kinetic at 1.5 h, 500 µM: pH 5.5, read-out: Kinetic_solubility
Cortical neurone [8] = assay: Neuroprotective activity in rat primary cortical neurons assessed as induction of neurite network outgrowth at 10 to 100 nM after 120 hrs; type: functional, cell-based
Cortical neurone [9] = assay: Neuroprotective activity in rat primary cortical neurons assessed as increase in survival at 1 nM after 120 hrs relative to untreated control; type: functional
Cortical neurone [10] = assay: Neuroprotective activity in rat primary cortical neurons assessed as increase in survival at 100 nM after 120 hrs relative to untreated control; type: functional
physchem [11] = conditions: n-octanol/water, pH 7.4
Cortical neurone [12] = assay: Neuroprotective activity in rat primary cortical neurons assessed as induction of neurite network outgrowth at 1 to 10 pM after 120 hrs; type: functional, cell-based
[13] = pampa, pH 7.4, 4 h, 10000 µM
Description: (§1) Effective permeability of the compound in prisma HT buffer at 10 mM at pH 7.4 after 4 hrs by PAMPA

in vitro = assay: in vitro; set-up: dose or concentration left out as unconfirmed; conditions: PAMPA, pH 7.4
Description: as §1

physchem [14] = conditions: buffer, pH 7.4
Cortical neurone [15] = assay: Neuroprotective activity in rat primary cortical neurons neurovascular unit model assessed as induction of neurite network outgrowth at 1 pM to 10 nM after 120 hrs in presence of HBMEC relative to untreated control; type: functional, cell-based
[16] = buffer, pH 7.4, 1.5 h, 500 µM
Cortical neurone [17] = assay: Neuroprotective activity in rat primary cortical neurons at 0.1 to 1 nM after 120 hrs; type: functional, cell-based
[18] = biological target: T2, Amine oxidase [flavin-containing] B; assay: Reversible inhibition of human recombinant MAO-B expressed in baculovirus infected BTI-TN-5B1-4 insect cells at IC80 using p-tyramine as substrate incubated for 20 mins followed by increase in substrate concentration up to 1 mM and measured after 300 mins by fluorescence assay
[19] = biological target: T4, Amine oxidase [flavin-containing] B (Rattus norvegicus, UniProt P19643)
T4 sequence (P19643 whole entry): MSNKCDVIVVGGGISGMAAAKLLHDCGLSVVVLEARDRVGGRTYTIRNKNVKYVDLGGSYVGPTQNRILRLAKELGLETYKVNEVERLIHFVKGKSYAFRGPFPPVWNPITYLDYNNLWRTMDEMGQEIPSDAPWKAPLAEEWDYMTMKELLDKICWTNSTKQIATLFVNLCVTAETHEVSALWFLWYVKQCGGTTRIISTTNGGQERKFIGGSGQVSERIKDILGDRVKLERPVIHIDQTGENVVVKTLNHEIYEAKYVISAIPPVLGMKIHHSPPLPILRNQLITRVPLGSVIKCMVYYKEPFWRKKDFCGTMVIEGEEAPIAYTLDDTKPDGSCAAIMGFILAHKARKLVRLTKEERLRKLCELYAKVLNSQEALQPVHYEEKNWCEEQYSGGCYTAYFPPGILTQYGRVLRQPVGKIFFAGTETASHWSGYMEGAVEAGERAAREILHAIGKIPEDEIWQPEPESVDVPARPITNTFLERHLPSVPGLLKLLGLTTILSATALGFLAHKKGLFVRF
Description: Inhibition of Sprague-Dawley rat liver MAO-B using p-tyramine as substrate preincubated for 15 mins and measured after 45 mins by resorufin-based fluorescence assay

[20] = biological target: T2, Amine oxidase [flavin-containing] B; assay: biochemical; type: cell-based, BTI-TN-5B1-4
Description: Inhibition of human recombinant MAO-B expressed in baculovirus infected BTI-TN-5B1-4 insect cells using p-tyramine as substrate preincubated for 15 mins and measured after 45 mins by resorufin-based fluorescence assay

Cortical neurone [21] = assay: Neuroprotective activity in rat primary cortical neurons neurovascular unit model assessed as induction of neurite network outgrowth at 150 to 300 nM after 120 hrs in presence of HBMEC relative to untreated control; type: functional, cell-based
Cortical neurone [22] = assay: Neuroprotective activity in rat primary cortical neurons neurovascular unit model assessed as increase in survival at 150 to 300 nM after 120 hrs in presence of HBMEC relative to untreated control; type: functional, cell-based

SMILES: O=C(Nc1cc2cc[nH]c2cn1)c1ccc(F)c(Cl)c1
- Ratio IC50 (Homo sapiens): > 138
- Ratio IC50 [1]: 1.1
- IC50 [2]: > 10000 nM
- Ki [3]: 31.8 nM
- IC50 [4]: > 10000 nM

SMILES: O=C(Nc1ccc2[nH]ccc2n1)c1ccc(Cl)c(Cl)c1
- log(Kinetic_solubility) [5]: -3.33
- solubility kinetic at 1.5 h, 500 µM [5]: 471 µM (≈ 144 µg/mL)
- Activity (Cortical neurone [6]): Active
- log(Kinetic_solubility) [7]: -4.37
- solubility kinetic at 1.5 h, 500 µM [7]: 42.9 µM (≈ 13.1 µg/mL)
- Activity (Cortical neurone [8]): inactive
- Efficacy (Cortical neurone [9]): 31%
- Efficacy (Cortical neurone [10]): 11%
- logD at 1.5 h (physchem [11]): 3.19
- Activity (Cortical neurone [12]): Active
- log(permeability) [13]: -3.97
- Papp at 4 h (in vitro): 107 ×10⁻⁶ cm/s
- solubility kinetic at 1.5 h, 500 µM (physchem [14]): 39.8 µM (≈ 12.2 µg/mL)
- Activity (Cortical neurone [15]): Active
- log(Kinetic_solubility) [16]: -4.4
- Activity (Cortical neurone [17]): Active
- IC50 [4]: > 10000 nM

SMILES: O=C(Nc1cc2cc[nH]c2cn1)c1ccc(Cl)c(F)c1
- Ratio IC50 (Homo sapiens): > 82
- IC50 [19]: 574 nM
- Ratio IC50 [1]: 1.1
- IC50 [2]: > 10000 nM
- IC50 [20]: 121 nM
- Ki [3]: 53.5 nM
- IC50 [4]: > 10000 nM

SMILES: O=C(Cc1ccc(Cl)c(Cl)c1)Nc1ccc2[nH]ccc2c1
- Ki [3]: 390 nM

SMILES: O=C(Nc1cc2cc[nH]c2cn1)c1ccc(F)c(F)c1
- Ratio IC50 (Homo sapiens): > 36
- IC50 [19]: 1300 nM
- Ratio IC50 [1]: 1.1
- Ki [3]: 122 nM

SMILES: C[C@]12CC[C@@H]3c4ccc(O)cc4CC[C@H]3[C@@H]1CC[C@@H]2O
- Activity (Cortical neurone [21]): Active
- Activity (Cortical neurone [22]): Active

SMILES: CC(=O)N[C@H]1CC(=O)N(c2ccc(OCc3cccc(F)c3)cc2)C1 [SEMBRAGILINE]
- Ratio IC50 (Homo sapiens): 653
- IC50 [19]: 14.7 nM
- IC50 [2]: 7700 nM
- IC50 [20]: 5.9 nM

SMILES: O=C(Nc1ccc2[nH]ncc2c1)c1cccc(Cl)c1Cl
- Ki [3]: 1140 nM

SMILES: O=C(Nc1ccc2[nH]ncc2c1)c1c(F)cccc1Cl
- Ki [3]: 1460 nM

SMILES: O=C(Nc1ccc2[nH]ccc2n1)c1ccc(F)c(F)c1
- Ratio IC50 (Homo sapiens): > 217
- Ratio IC50 [1]: 1.1
- Ki [3]: 20.4 nM
- IC50 [4]: > 10000 nM

Continued, in another order:

- log(Kinetic_solubility) [5]: -3.33
- solubility kinetic at 1.5 h, 500 µM [5]: 501 µM (≈ 145 µg/mL)
- log(Kinetic_solubility) [7]: -3.96
- solubility kinetic at 1.5 h, 500 µM [7]: 111 µM (≈ 32.1 µg/mL)
- logD at 1.5 h (physchem [11]): 2.32
- log(permeability) [13]: -3.96
- Papp at 4 h (in vitro): 110 ×10⁻⁶ cm/s
- solubility kinetic at 1.5 h, 500 µM (physchem [14]): 119 µM (≈ 34.5 µg/mL)
- log(Kinetic_solubility) [16]: -3.92
- inhibition (INH) [18]: Active
- Ki [3]: 1.45 nM
- IC50 [4]: > 10000 nM
SMILES: O=C(Nc1ccc2[nH]ccc2n1)c1ccc(F)c(Cl)c1
- Ratio IC50 (Homo sapiens): > 3060
- Ratio IC50 [1]: 1.1

- log(Kinetic_solubility) [5]: -3.37
- solubility kinetic at 1.5 h, 500 µM [5]: 426 µM (≈ 130 µg/mL)
- log(Kinetic_solubility) [7]: -4.16
- solubility kinetic at 1.5 h, 500 µM [7]: 68.8 µM (≈ 21.1 µg/mL)
- logD at 1.5 h (physchem [11]): 3.04
- log(permeability) [13]: -3.96
- Papp at 4 h (in vitro): 111 ×10⁻⁶ cm/s
- solubility kinetic at 1.5 h, 500 µM (physchem [14]): 65.1 µM (≈ 19.9 µg/mL)
- log(Kinetic_solubility) [16]: -4.19
- IC50 [20]: 28.9 nM
- Ki [3]: 12.8 nM
- IC50 [4]: > 10000 nM
SMILES: O=C(Nc1cc2cc[nH]c2cn1)c1ccc(Cl)c(Cl)c1
- Ratio IC50 (Homo sapiens): > 346
- Ratio IC50 [1]: 1.1

- log(Kinetic_solubility) [5]: -3.41
- solubility kinetic at 1.5 h, 500 µM [5]: 391 µM (≈ 113 µg/mL)
- log(Kinetic_solubility) [7]: -4.09
- solubility kinetic at 1.5 h, 500 µM [7]: 82.1 µM (≈ 23.8 µg/mL)
- logD at 1.5 h (physchem [11]): 2.69
- log(permeability) [13]: -3.9
- Papp at 4 h (in vitro): 127 ×10⁻⁶ cm/s
- solubility kinetic at 1.5 h, 500 µM (physchem [14]): 93.8 µM (≈ 27.2 µg/mL)
- log(Kinetic_solubility) [16]: -4.03
- Ki [3]: 4.82 nM
- IC50 [4]: > 10000 nM
SMILES: O=C(Nc1ccc2[nH]ccc2n1)c1ccc(Cl)c(F)c1
- Ratio IC50 (Homo sapiens): > 917
- Ratio IC50 [1]: 1.1

- Ki [3]: 5.48 nM
SMILES: O=C(Nc1ccc2[nH]ncc2c1)c1ccc(Cl)c(Cl)c1
